Legend:
[1] = Inhibition of influenza A virus A/Anhui/1/2005 H5N1 using MUNANA as substrate preincubated for 45 mins followed by substrate addition by fluorescence based assay
[2] = Inhibition of Newcastle disease virus neuraminidase using 4-MUNeu5Ac as substrate assessed as reduction in neuraminidase activity incubated for 15 mins by spectrofluorometric analysis
[3] = Binding affinity to influenza A virus A/HongKong/156/97 (H5N1) neuraminidase using fluorogenic MUN as substrate assessed as inhibition constant
[4] = test system: Influenza A virus; experiment: Antiviral activity against Influenza A virus; format: functional, organism-based
[5] = test system: Influenza B virus; experiment: Antiviral activity against Influenza B virus; format: functional, organism-based
[6] = biological target: Neuraminidase (Influenza A virus, UniProt B4URF0); experiment: Inhibition of influenza A virus neuraminidase
[7] = biological target: Neuraminidase (Influenza A virus (A/Puerto Rico/8/1934(H1N1)), UniProt P03468); experiment: Binding affinity to influenza A virus H1N1 (A/Norway/1758/07) neuraminidase using MUNANA as substrate assessed as inhibition constant
[8] = Inhibition of Influenza A virus H7N9 VLP neuraminidase using MUNANA as substrate
[9] = biological target: Neuraminidase (Influenza A virus (A/Memphis/1/1971(H3N2)), UniProt P03471); experiment: Inhibition of influenza A virus H3N2 (A/Moscow/10/99) neuraminidase using MUNANA as substrate preincubated for 30 mins followed by substrate addition by fluorescence-based assay
[10] = Inhibition of influenza A virus H12N5 A/Duck/Alberta/60/1976 neuraminidase using MUNANA as substrate incubated for 30 mins followed by substrate addition by fluorescence based assay
[11] = Inhibition of hPIV-3 Haemagglutinin-neuraminidase infected in human red blood cells incubated for 90 mins by haemagglutination assay; format: cell-based, RBC; conditions: Human respirovirus 3, Erythrocyte, 1.5 h
[12] = test system: Influenza A virus; experiment: Antiviral activity against oseltamivir sensitive wild type Influenza A virus A/Brisbane/59/2007 infected infected in dog MDCK cells assessed as inhibition of viral growth incubated for 4 days by neutral red dye-based assay; format: functional; conditions: A/Brisbane/59/2007, MDCK, 96 h, time 4 day, read-out: ED50 (the source's name)
[13] = test system: Influenza A virus; experiment: Antiviral activity against influenza A virus A/Hong Kong/1/68 (HK1, H3N2) infected in dog MDCK cells assessed as cytopathic effect; format: functional, organism-based
[14] = Inhibition of influenza A virus H5N1 (A/Anhui/2005) neuraminidase using fluorogenic MUNANA as substrate
[15] = Inhibition of influenza A virus A/Singapore/157 neuraminidase using 2'-(4-methylumbelliferyl)-alpha-D-acetylneuraminic acid as substrate incubated for 10 to 30 mins by fluorescence-based assay
[16] = Inhibition of influenza B virus B/Victoria/70 neuraminidase using 2'-(4-methylumbelliferyl)-alpha-D-acetylneuraminic acid as substrate incubated for 10 to 30 mins by fluorescence-based assay

Sequence of Neuraminidase (B4URF0 whole entry): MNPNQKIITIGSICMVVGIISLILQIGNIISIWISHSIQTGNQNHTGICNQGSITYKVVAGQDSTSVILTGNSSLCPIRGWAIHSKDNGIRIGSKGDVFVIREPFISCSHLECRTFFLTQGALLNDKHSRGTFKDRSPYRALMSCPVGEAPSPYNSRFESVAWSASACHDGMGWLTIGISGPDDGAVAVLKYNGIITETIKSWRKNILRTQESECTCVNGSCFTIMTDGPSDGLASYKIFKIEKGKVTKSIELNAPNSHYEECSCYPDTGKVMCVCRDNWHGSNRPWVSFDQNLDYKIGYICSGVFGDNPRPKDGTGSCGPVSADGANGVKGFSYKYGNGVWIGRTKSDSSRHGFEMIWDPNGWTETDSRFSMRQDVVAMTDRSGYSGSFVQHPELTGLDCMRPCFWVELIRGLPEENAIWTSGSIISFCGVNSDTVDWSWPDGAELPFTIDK
Sequence of Neuraminidase (Influenza A virus (A/Puerto Rico/8/1934(H1N1)), UniProt P03468) (P03468 whole entry): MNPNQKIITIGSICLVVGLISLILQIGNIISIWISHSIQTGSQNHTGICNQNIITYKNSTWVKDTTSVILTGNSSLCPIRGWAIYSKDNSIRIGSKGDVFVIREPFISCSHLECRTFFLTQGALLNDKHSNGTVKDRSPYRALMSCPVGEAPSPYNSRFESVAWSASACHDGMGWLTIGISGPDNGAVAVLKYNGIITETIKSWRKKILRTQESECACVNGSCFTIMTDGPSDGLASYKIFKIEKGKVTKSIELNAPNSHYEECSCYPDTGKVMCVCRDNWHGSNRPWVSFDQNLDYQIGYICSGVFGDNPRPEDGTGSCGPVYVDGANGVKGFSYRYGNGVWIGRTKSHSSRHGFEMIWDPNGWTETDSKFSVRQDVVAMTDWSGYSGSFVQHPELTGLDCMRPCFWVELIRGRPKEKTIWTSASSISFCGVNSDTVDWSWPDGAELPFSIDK
Sequence of Neuraminidase (Influenza A virus (A/Memphis/1/1971(H3N2)), UniProt P03471) (P03471 whole entry): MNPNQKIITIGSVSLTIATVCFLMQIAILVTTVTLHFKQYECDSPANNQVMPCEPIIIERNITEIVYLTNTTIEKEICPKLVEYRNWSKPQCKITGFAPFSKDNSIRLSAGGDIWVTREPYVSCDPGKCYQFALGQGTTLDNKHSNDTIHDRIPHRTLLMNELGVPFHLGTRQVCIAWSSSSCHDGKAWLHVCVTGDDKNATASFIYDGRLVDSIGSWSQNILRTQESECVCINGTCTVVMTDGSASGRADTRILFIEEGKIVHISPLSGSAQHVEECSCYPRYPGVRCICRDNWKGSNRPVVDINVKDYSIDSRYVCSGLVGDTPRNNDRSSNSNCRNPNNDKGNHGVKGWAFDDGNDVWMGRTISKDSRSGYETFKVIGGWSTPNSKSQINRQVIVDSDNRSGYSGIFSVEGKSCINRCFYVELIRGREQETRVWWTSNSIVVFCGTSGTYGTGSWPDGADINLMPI

For `CCC(CC)O[C@@H]1C2C([C@@H]2C(=O)O)[C@@H](NCc2ccccc2)[C@H]1NC(C)=O` (stereo partly specified), which IC50 [1] is on record?
The IC50 was 10 µM.

For `CCC(CC)O[C@@H]1C2C([C@@H]2C(=O)O)[C@@H](NCc2ccc(-c3ccccc3)cc2)[C@H]1NC(C)=O` (stereo partly specified), which IC50 [1] is on record?
Its IC50 is 10 µM.

With `O=C(O)C1=C[C@H](NC(=O)C(F)(F)F)[C@H](NC(=O)C(F)(F)F)[C@H]([C@@H](O)[C@H](O)CO)O1` as the compound, how does the IC50 [2] read?
Its IC50 is 0.03 µM.

For `CC(=O)N[C@H]1[C@H]([C@H](O)[C@H](O)CO)OC(C(=O)O)=C(C/C=C/c2cccc3ccccc23)[C@@H]1O`, which Ki [3] is on record?
The Ki was 9.3 µM.

For `CCC(CC)O[C@@H]1C2C([C@@H]2C(=O)O)[C@@H](O)[C@H]1NC(C)=O` (stereo partly specified), which IC50 [1] is on record?
Its IC50 is 10 µM.

With `[N-]=[N+]=N[C@H]1C=C(C(=O)O)O[C@@H]([C@@H](O)[C@H](O)CO)[C@H]1NC(=O)C(F)(F)C(F)(F)C(F)(F)F` as the compound, how does the IC50 [2] read?
The IC50 was 0.03 µM.

With `Cc1ccc(C(=O)N[C@H]2C=C(C(=O)O)O[C@@H]([C@@H](O)[C@H](O)CO)[C@H]2NC(=O)C(F)(F)F)cc1` as the compound, how does the IC50 [2] read?
Its IC50 is 0.03 µM.

Which IC50 [4] does the source give for `CC(=O)N[C@H]1[C@H]([C@H](O)[C@H](O)CO)OC(C(=O)O)=C[C@@H]1NC(=N)NN` here?
Its IC50 is 4.59 µM.

What about the IC50 [5] of the same compound?
The IC50 was 4.59 µM.

For `CCCCCCCCCCCCO[C@@H]([C@@H]1OC(C(=O)O)=C[C@H](N=C(N)N)[C@H]1NC(C)=O)[C@H](O)CO`, which IC50 [6] is on record?
Its IC50 is 0.0992 µM.

Which IC50 [6] does the source give for `CCO[C@@H]([C@@H]1OC(C(=O)O)=C[C@H](N=C(N)N)[C@H]1NC(C)=O)[C@H](O)CO` here?
Its IC50 is 0.0733 µM.

Which IC50 [6] does the source give for `CO[C@@H]([C@@H]1OC(C(=O)O)=C[C@H](NC(=N)N)[C@H]1NC(C)=O)[C@H](O)CO` here?
Its IC50 is 0.0176 µM.

For `CCCCCO[C@@H]([C@@H]1OC(C(=O)O)=C[C@H](N=C(N)N)[C@H]1NC(C)=O)[C@H](O)CO`, which IC50 [6] is on record?
Its IC50 is 0.0356 µM.

Which results are given for `CC(=O)N[C@H]1[C@H]([C@H](O)[C@H](O)CO)OC(C(=O)O)=C[C@@H]1NC(=N)NO`?
IC50 [4]: 4.59 µM; IC50 [5]: 4.59 µM

For `CCC(CC)O[C@@H]1C=C(P(=O)(O)O[C@H]2[C@@H](O)[C@@H](CO)O[C@@H](OC)[C@@H]2O)C[C@H](N)[C@H]1NC(C)=O`, which Ki [7] is on record?
Its Ki is 0.00029 µM.

Which IC50 [8] does the source give for `N=C(N)N[C@@H]1[C@@H](NC(=O)C(F)(F)F)[C@H]([C@H](OC(=O)NCCn2cc(COC[C@H]3O[C@@H](O[C@H]4[C@H](OCc5cn(CCNC(=O)O[C@@H]([C@@H]6O[C@@](F)(C(=O)O)[C@H](F)[C@H](NC(=N)N)[C@H]6NC(=O)C(F)(F)F)[C@H](O)CO)nn5)[C@@H](OCc5cnnn5CCNC(=O)O[C@@H]([C@@H]5O[C@@](F)(C(=O)O)[C@H](F)[C@H](NC(=N)N)[C@H]5NC(=O)C(F)(F)F)[C@H](O)CO)[C@H](OCc5cn(CCNC(=O)O[C@@H]([C@@H]6O[C@@](F)(C(=O)O)[C@H](F)[C@H](NC(=N)N)[C@H]6NC(=O)C(F)(F)F)[C@H](O)CO)nn5)O[C@@H]4COCc4cn(CCNC(=O)O[C@@H]([C@@H]5O[C@@](F)(C(=O)O)[C@H](F)[C@H](NC(=N)N)[C@H]5NC(=O)C(F)(F)F)[C@H](O)CO)nn4)[C@H](OCc4cn(CCNC(=O)O[C@@H]([C@@H]5O[C@@](F)(C(=O)O)[C@H](F)[C@H](NC(=N)N)[C@H]5NC(=O)C(F)(F)F)[C@H](O)CO)nn4)[C@@H](OCc4cn(CCNC(=O)O[C@@H]([C@@H]5O[C@@](F)(C(=O)O)[C@H](F)[C@H](NC(=N)N)[C@H]5NC(=O)C(F)(F)F)[C@H](O)CO)nn4)[C@H]3OCc3cn(CCNC(=O)O[C@@H]([C@@H]4O[C@@](F)(C(=O)O)[C@H](F)[C@H](NC(=N)N)[C@H]4NC(=O)C(F)(F)F)[C@H](O)CO)nn3)nn2)[C@H](O)CO)O[C@@](F)(C(=O)O)[C@@H]1F` here?
Its IC50 is 0.0306 µM.

For `CCC(CC)O[C@@H]1C=C(C(=O)O)C[C@H](n2nncc2-c2cccc(N)c2)[C@H]1NC(C)=O`, which IC50 [9] is on record?
The IC50 was 0.019 µM.

What about the IC50 [10] of the same compound?
The IC50 was 0.045 µM.

For `CCOC(=O)NC(=N)N[C@H]1C=C(C(=O)O)O[C@@H]([C@H](O)[C@H](O)CO)[C@@H]1NC(C)=O`, which IC50 [4] is on record?
The IC50 was 4.59 µM.

And the IC50 [5]?
Its IC50 is 4.59 µM.

For `CCCO[C@@H]([C@@H]1OC(C(=O)O)=C[C@H](N=C(N)N)[C@H]1NC(C)=O)[C@H](O)CO`, which IC50 [6] is on record?
Its IC50 is 0.0818 µM.

Which IC50 [2] does the source give for `[N-]=[N+]=N[C@H]1C=C(C(=O)O)O[C@@H]([C@@H](O)[C@H](O)CO)[C@H]1NC(=O)C(F)(F)F` here?
The IC50 was 0.03 µM.

For `CCC(CC)O[C@@H]1C=C(P(=O)(O)OC[C@H]2O[C@@H](OC)[C@H](O)[C@@H](O)[C@H]2O)C[C@H](N)[C@H]1NC(C)=O`, which Ki [7] is on record?
The Ki was 0.00074 µM.

With `CC(C)C(=O)N[C@H]1[C@H]([C@H](O)[C@H](O)CO)OC(C(=O)O)=C(n2cc(-c3ccccc3C(=O)O)nn2)[C@@H]1O` as the compound, how does the IC50 [11] read?
Its IC50 is 3.9 µM.

With `CCC(CC)O[C@@H]1CC(C(=O)O)=C[C@H](N)[C@H]1NC(C)=O` as the compound, how does the EC50 [12] read?
Its EC50 is 12 µM.

Which EC50 [12] does the source give for `CCC(CC)O[C@@H]1CC(C(=O)O)=C[C@H](NC(=N)N)[C@H]1NC(C)=O` here?
The EC50 was 3.9 µM.

For `CCC(CC)O[C@@H]1C=C(C(=O)O)[C@@H](n2cc(C(O)CC)nn2)[C@H](N)[C@H]1NC(C)=O` (stereo partly specified), which IC50 [13] is on record?
The IC50 was 0.1 µM.

What does the source list for `CNC(=N)N[C@H]1C=C(C(=O)O)O[C@@H]([C@H](O)[C@H](O)CO)[C@@H]1NC(C)=O`?
IC50 [4]: 4.59 µM; IC50 [5]: 4.59 µM

Which results are given for `CC(=O)N[C@H]1[C@H]([C@H](O)[C@H](O)CO)OC(C(=O)O)=C[C@@H]1NC(=N)N[N+](=O)[O-]`?
IC50 [4]: 4.59 µM; IC50 [5]: 4.59 µM

For `CCC(CC)O[C@@H]1C=C(C(=O)O)C[C@H](NS(C)(=O)=O)[C@H]1NC(C)=O`, which IC50 [14] is on record?
Its IC50 is 3.5 µM.

Which results are given for `CCC(CC)[C@H](NC(C)=O)[C@@H]1C[C@@H](C(=O)O)C[C@H]1N=C(N)N`?
IC50 [15]: < 0.01 µM; IC50 [16]: < 0.01 µM

Which IC50 [6] does the source give for `CCCCCCCCO[C@@H]([C@@H]1OC(C(=O)O)=C[C@H](N=C(N)N)[C@H]1NC(C)=O)[C@H](O)CO` here?
Its IC50 is 0.0455 µM.

From ChEMBL document CHEMBL5321229, “Conformationally locked sugar derivatives and analogues as potential neuraminidase inhibitors” (Eur J Med Chem, 2023)
